Measurements taken from PubChem BioAssay AID248 (DTP/NCI, 2004).
Where “and” joins values, the source holds several entries; their conditions need not be identical. Equal entries are not always repeated. Inconclusive results and toxic doses are left out. No stated cut-off is given here; in the data, active means T/C of 150% or more; inactive means T/C below 125%.

System: L1210 leukemia ip in BDF1 mice, survival T/C
Assay: NCI In Vivo Anticancer Drug Screen. Data for tumor model L1210 Leukemia (intraperitoneal) in B6D2F1 (BDF1) mice
Details: endpoint: mean survival time, higher = longer survival
Procedure, shortened: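 Transplantable tumor model; survival measured in treated vs vehicle control mice. Value = treated/control.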

[1] = dose: 100.0 mg/kg/injection, schedule: Q01DX009 (ip), vehicle: saline
[2] = dose: 200.0 mg/kg/injection, schedule: Q01DX009 (ip), vehicle: saline
[3] = dose: 100.0 mg/kg/injection, schedule: Q04DX003 (ip), vehicle: saline
[4] = dose: 200.0 mg/kg/injection, schedule: Q04DX003 (ip), vehicle: saline
[5] = dose: 400.0 mg/kg/injection, schedule: Q04DX003 (ip), vehicle: saline
[6] = dose: 50.0 mg/kg/injection, schedule: Q01DX001 (ip), vehicle: Klucel (hydroxypropylcellulose) (HPC)
[7] = dose: 100.0 mg/kg/injection, schedule: Q01DX001 (ip), vehicle: Klucel (hydroxypropylcellulose) (HPC)
[8] = dose: 200.0 mg/kg/injection, schedule: Q01DX001 (ip), vehicle: Klucel (hydroxypropylcellulose) (HPC)
[9] = dose: 100.0 mg/kg/injection, schedule: Q01DX009 (ip), vehicle: Klucel (hydroxypropylcellulose) (HPC)
[10] = dose: 50.0 mg/kg/injection, schedule: Q04DX003 (ip), vehicle: Klucel (hydroxypropylcellulose) (HPC)
[11] = dose: 100.0 mg/kg/injection, schedule: Q04DX003 (ip), vehicle: Klucel (hydroxypropylcellulose) (HPC)
[12] = dose: 200.0 mg/kg/injection, schedule: Q04DX003 (ip), vehicle: Klucel (hydroxypropylcellulose) (HPC)

Measured: T/C

C[S+]1CCC(N)C(=O)C1 (stereo not drawn)
inactive: dose: 12.5 mg/kg/injection, schedule: Q04DX002 (ip), vehicle: saline 103 % of control | dose: 25.0 mg/kg/injection, schedule: Q04DX002 (ip), vehicle: saline 120 % of control | dose: 50.0 mg/kg/injection, schedule: Q04DX002 (ip), vehicle: saline 113 % of control and 91 % of control | dose: 100.0 mg/kg/injection, schedule: Q04DX002 (ip), vehicle: saline 103 % of control

CCCCCCCCCCCCOP(OCCCCCCCCCCCC)OCCCCCCCCCCCC
inactive: [1] 90 % of control | [2] 88 % of control | dose: 400.0 mg/kg/injection, schedule: Q01DX009 (ip), vehicle: saline 93 % of control

CC(O)Cn1cnc2c1c(=O)n(C)c(=O)n2C (stereo not drawn)
inactive: [1] 93 % of control | [3] 95 % of control | [2] 95 % of control | [4] 95 % of control | [5] 94 % of control

O=C(Nc1cccc2ccccc12)Oc1cccc2cccnc12
inactive: [6] 96 % of control | [7] 105 % of control | [8] 105 % of control

Nc1ccc2c(c1)Cc1cc(N)c(Br)cc1-2
inactive: dose: 100.0 mg/kg/injection, schedule: Q01DX001 (ip), vehicle: carboxymethylcellulose (CMC) 105 % of control | dose: 200.0 mg/kg/injection, schedule: Q01DX001 (ip), vehicle: carboxymethylcellulose (CMC) 109 % of control | dose: 400.0 mg/kg/injection, schedule: Q01DX001 (ip), vehicle: carboxymethylcellulose (CMC) 94 % of control

CCCCCCCCCCCCCCCCCC(=O)[O][Hg][c]1ccccc1
inactive: dose: 5.0 mg/kg/injection, schedule: Q01DX001 (ip), vehicle: carboxymethylcellulose (CMC) 94 % of control | dose: 8.0 mg/kg/injection, schedule: Q01DX015 (ip), vehicle: carboxymethylcellulose (CMC) 96 % of control | dose: 10.0 mg/kg/injection, schedule: Q01DX001 (ip), vehicle: carboxymethylcellulose (CMC) 94 % of control | dose: 10.0 mg/kg/injection, schedule: Q01DX009 (ip), vehicle: saline with Tween-80 94 % of control | dose: 16.0 mg/kg/injection, schedule: Q01DX015 (ip), vehicle: carboxymethylcellulose (CMC) 92 % of control | dose: 20.0 mg/kg/injection, schedule: Q01DX001 (ip), vehicle: carboxymethylcellulose (CMC) 92 % of control | dose: 20.0 mg/kg/injection, schedule: Q01DX009 (ip), vehicle: saline with Tween-80 110 % of control | dose: 20.0 mg/kg/injection, schedule: Q04DX003 (ip), vehicle: saline 102 % of control | dose: 32.0 mg/kg/injection, schedule: Q01DX015 (ip), vehicle: carboxymethylcellulose (CMC) 94 % of control | dose: 40.0 mg/kg/injection, schedule: Q01DX001 (ip), vehicle: carboxymethylcellulose (CMC) 100 % of control | dose: 40.0 mg/kg/injection, schedule: Q04DX003 (ip), vehicle: saline 98 % of control

O=c1[nH]cnc2nc(I)[nH]c12
inactive: dose: 100.0 mg/kg/injection, schedule: Q01DX001 (ip), vehicle: saline 104 % of control | dose: 200.0 mg/kg/injection, schedule: Q01DX001 (ip), vehicle: saline 98 % of control | dose: 400.0 mg/kg/injection, schedule: Q01DX001 (ip), vehicle: saline 98 % of control

CCCC(C)OP(=O)(OC(C)CC)OC(C)CC (stereo not drawn)
inactive: [9] 97 % of control | dose: 200.0 mg/kg/injection, schedule: Q01DX009 (ip), vehicle: Klucel (hydroxypropylcellulose) (HPC) 97 % of control

CS(=O)(=NC(=S)Nc1ccccc1)c1ccccc1 (stereo not drawn)
inactive: dose: 75.0 mg/kg/injection, schedule: Q01DX009 (ip), vehicle: saline 97 % of control | dose: 150.0 mg/kg/injection, schedule: Q01DX009 (ip), vehicle: saline 100 % of control | dose: 300.0 mg/kg/injection, schedule: Q01DX009 (ip), vehicle: saline 100 % of control

NC(=O)Oc1ccccc1Cl
inactive: dose: 75.0 mg/kg/injection, schedule: Q04DX003 (ip), vehicle: Klucel (hydroxypropylcellulose) (HPC) 104 % of control | dose: 150.0 mg/kg/injection, schedule: Q04DX003 (ip), vehicle: Klucel (hydroxypropylcellulose) (HPC) 100 % of control | dose: 300.0 mg/kg/injection, schedule: Q04DX003 (ip), vehicle: Klucel (hydroxypropylcellulose) (HPC) 105 % of control

O=C(NC1CC1(c1ccccc1)c1ccccc1)NC1CC1(c1ccccc1)c1ccccc1 (stereo not drawn)
inactive: dose: 300.0 mg/kg/injection, schedule: Q01DX001 (ip), vehicle: other 86 % of control

COc1ccc(NC(=O)CCc2ccc(N3C(N)=NC(N)=NC3(C)C)cc2)cc1S(=O)(=O)F
inactive: [6] 95 % of control | [7] 106 % of control | [8] 98 % of control

CC(=O)OCC1OC(N2C(=O)/C(=C/c3ccc4ccccc4c3)SC2=S)C(OC(C)=O)C(OC(C)=O)C1OC(C)=O (stereo not drawn)
inactive: dose: 25.0 mg/kg/injection, schedule: Q01DX005 (ip), vehicle: other 92 % of control | dose: 50.0 mg/kg/injection, schedule: Q01DX005 (ip), vehicle: other 97 % of control

CCCC(C)c1ccccc1O (stereo not drawn)
inactive: dose: 100.0 mg/kg/injection, schedule: Q04DX003 (ip), vehicle: saline with Tween-80 95 % of control

C(=N\c1ncn[nH]1)/Nc1ncn[nH]1
inactive: [3] 94 % of control | [4] 96 % of control

O=C1COc2ccccc2N1
inactive: [10] 96 % of control | dose: 100.0 mg/kg/injection, schedule: Q01DX001 (ip), vehicle: other 103 % of control | [11] 94 % of control | dose: 200.0 mg/kg/injection, schedule: Q01DX001 (ip), vehicle: other 96 % of control | [12] 96 % of control

OC1CC2CCC(C2)C1(O)c1ccccc1 (stereo not drawn)
inactive: [11] 93 % of control | [12] 117 % of control | dose: 400.0 mg/kg/injection, schedule: Q04DX003 (ip), vehicle: Klucel (hydroxypropylcellulose) (HPC) 93 % of control

Cc1nc(N)[nH]c(=O)c1CCCOc1ccccc1
inactive: dose: 50.0 mg/kg/injection, schedule: Q01DX Z (ip), vehicle: carboxymethylcellulose (CMC) 95 % of control | dose: 100.0 mg/kg/injection, schedule: Q01DX Z (ip), vehicle: carboxymethylcellulose (CMC) 93 % of control | dose: 200.0 mg/kg/injection, schedule: Q01DX Z (ip), vehicle: carboxymethylcellulose (CMC) 93 % of control | dose: 400.0 mg/kg/injection, schedule: Q01DX Z (ip), vehicle: carboxymethylcellulose (CMC) 93 % of control

O=C(O)C(Cl)C(=O)O
inactive: dose: 4.68 mg/kg/injection, schedule: Q01DX009 (ip), vehicle: saline 102 % of control | dose: 9.37 mg/kg/injection, schedule: Q01DX009 (ip), vehicle: saline 102 % of control | dose: 18.75 mg/kg/injection, schedule: Q01DX009 (ip), vehicle: saline 94 % of control | dose: 18.75 mg/kg/injection, schedule: Q04DX003 (ip), vehicle: saline 105 % of control | dose: 37.5 mg/kg/injection, schedule: Q04DX003 (ip), vehicle: saline 97 % of control | dose: 75.0 mg/kg/injection, schedule: Q01DX001 (ip), vehicle: saline 107 % of control

CC(C)(C)C1CCC(NC(=O)C(Cl)Cl)CC1 (stereo not drawn)
inactive: dose: 25.0 mg/kg/injection, schedule: Q01DX009 (ip), vehicle: Klucel (hydroxypropylcellulose) (HPC) 100 % of control | dose: 25.0 mg/kg/injection, schedule: Q04DX003 (ip), vehicle: Klucel (hydroxypropylcellulose) (HPC) 97 % of control | dose: 50.0 mg/kg/injection, schedule: Q01DX009 (ip), vehicle: Klucel (hydroxypropylcellulose) (HPC) 94 % of control | [10] 100 % of control | [9] 96 % of control | [11] 90 % of control and 92 % of control

O=[N+]([O-])c1ccccc1C(=Nc1ccccc1)c1c(O)cc(O)cc1O
inactive: dose: 100.0 mg/kg/injection, schedule: Q01DX009 (ip), vehicle: acetone 94 % of control | [3] 96 % of control | dose: 200.0 mg/kg/injection, schedule: Q01DX009 (ip), vehicle: acetone 100 % of control | [4] 101 % of control | [5] 98 % of control

CCOC(=O)c1cc(=O)c2c(ccc3ccccc32)[nH]1
inactive: [11] 94 % of control | [12] 93 % of control

Nc1nc(Cl)[nH]c(=O)n1
inactive: dose: 12.5 mg/kg/injection, schedule: Q01DX001 (ip), vehicle: Klucel (hydroxypropylcellulose) (HPC) 105 % of control | dose: 25.0 mg/kg/injection, schedule: Q01DX001 (ip), vehicle: Klucel (hydroxypropylcellulose) (HPC) 97 % of control | [6] 100 % of control
